Tests used:
[1] = test system: Aspergillus niger fungical spores; test: Fungicide activity, UNE-EN 1275 (Example 2); assay type: cell-based; details: 20° C.; for Test of LAE fungicide activity (Na), surviving spores count: N 5 × 10^7 cfu/mL
Excerpt: The determination of the fungicide activity of LAE has been carried out according to the European standard UNE-EN 1275: “Chemical disinfectant and antiseptic. Fungicide activity. Test method and requirements”.
The fungicide activity of a given product is defined by its capacity to reduce at least by 10^4 the amount of Aspergillus niger fungical spores in suspension, in the conditions established in the method.
The product is in contact with a suspension of fungical spores during an established period of time (60 minutes). After this time, the effect of the product is neutralized by adding Polysorbate 80 in water solution at 2%, preceding to the surviving spores count.
• 1. Spore suspension obtained from a spored-form culture of Aspergillus niger. • 2. Count of the spore suspension of Aspergillus niger. • 3. The possible toxic effect of the neutralizer on the spores in the absence of the product is valued. • 4. Evaluation of the neutralizing effect of the neutralizer over the product. • 5. Evaluation of the fungicide effect of the product. • 6. Result calculation. Results:
(§1) Tabulation of the Method and Test Validation Results (at 20° C.):
Fungicide activity is calculated as follows: R=N×0.1/Na N cfu/mL of the fungical spore suspension Na cfu/mL of the fungicide activity The calculated reduction of a solution of: • 100 μg/mL of LAE is R=3.1×10^2 cfu/mL • 200 μg/mL of LAE is R=1.3×10^3 cfu/mL • 300 μg/mL of LAE is R=1.4×10^3 cfu/mL • 400 μg/mL of LAE is R=1.7×10^3 cfu/mL • 500 μg/mL of LAE is R>10^4 cfu/mL
A product is considered fungicide if its use results in a reduction in the number of Aspergillus niger fungical spores equal to or above 10^4 after being in contact for 60 minutes in the conditions set in UNE-EN 1275.

[2] = test system: endospores from Geobacillus stearothermophilus ATCC 12980; test: Sporicidal activity, quantitative suspension test EN 13704:2002 (Example 3); assay type: cell-based; details: 40° C.; for calculated reduction (R) R=N×0.1/Na: 60 minutes; for Test of LAE sporicidal activity (Na), surviving spores count: water as interfering substance, N 1.3 × 10^6 cfu/mL
Protocol: (§2) The determination of the sporicidal activity of LAE has been carried out according to the European standard EN 13704:2002: “Chemical disinfectant—Quantitative suspension test for the evaluation of sporicidal activity of chemical disinfectants used in food, industrial, domestic and institutional areas—Test method and requirements”.
(§3) A test suspension containing endospores from Geobacillus stearothermophilus ATCC 12980 was prepared from a culture grown on a nutrient agar, to which additional sporulation enhancement ingredients were added. Plates were harvested with sterile water and endospores were purified by repeated centrifugations and resuspensions in water.
(§4) Neutralizer. The neutralizer mixture consisted of 30 g/L polysorbate 80 in water. The solution was intended to neutralize any chemicals so that these would not affect subsequent growth of the bacteria.
The sporicidal activity of a given product is defined by its capacity to reduce at least by 10^3 the amount of Geobacillus stearothermophilus bacterial spores in suspension, in the conditions established in the method.
(§5) The product was in contact with a suspension of bacterial spores during an established period of time of 60 minutes. An interfering substance can be added to the suspension, in this case water. Next, the effect of the product is neutralized by adding a neutralizer previously chosen, preceding to the surviving spores count.
(§6) • 1. Spore suspension obtained from a spored-form culture of Geobacillus stearothermophilus • 2. Count of the spore suspension of Geobacillus stearothermophilus. • 3. The possible toxic effect of the neutralizer on the spores in the absence of the product is valued. • 4. Validation of the dilution-neutralisation method. • 5. Evaluation of the inhibitory sporicide effect of the product. • 6. Result calculation. Results: Results are expressed as the reduction of viability of the spore suspension in regards to:
Tabulation of the Method and Test Validation Results (at 40° C.): […]

[3] = test system: endospores from Thermoanaerobacterium thermosaccharolyticum ATCC 7956; test: Sporicidal activity, quantitative suspension test EN 13704:2002 (Example 4); assay type: cell-based; details: 20° C.; for calculated reduction R=N×0.1/Na: 60 minutes; for Test of LAE sporicidal activity (Na), surviving spores count: water as interfering substance, N 0.65 × 10^6 cfu/mL
Protocol: as §2
as §3, with “Thermoanaerobacterium thermosaccharolyticum” for “Geobacillus stearothermophilus”, “7956” for “12980”
as §4
The sporicidal activity of a given product is defined by its capacity to reduce at least by 10^3 the amount of Thermoanaerobacterium thermosaccharolyticum bacterial spores in suspension, in the conditions established in the method.
as §5
as §6, with “Thermoanaerobacterium thermosaccharolyticum.” for “Geobacillus stearothermophilus”, “Thermoanaerobacterium thermosaccharolyticum.” for “Geobacillus stearothermophilus.”
as §1
A product is considered sporicidal if its use results in a reduction (R) in the number of Thermoanaerobacterium thermosaccharolyticum bacterial spores equal to or above 10^3 after being in contact for 60 minutes in the conditions set in EN 13704:2002.

[4] = test system: Enterobacter aerogenes CECT 689; details: Gram − Bacteria; cited from earlier work
[5] = test system: Pseudomonas aeruginosa ATCC 9027; details: Gram − Bacteria; cited from earlier work
[6] = test system: Serratia marcenses CECT 274; details: Gram − Bacteria; cited from earlier work
[7] = test system: Aspergillus niger ATCC 14604; details: Fungi; cited from earlier work
[8] = test system: Chaetonium globosum ATCC 6205; details: Fungi; cited from earlier work
[9] = 60 minutes contact, EN 13704:2002

SMILES: CCCCCCCCCCCC(=O)N[C@@H](CCCN=C(N)N)C(=O)OCC.Cl [LAE, ethyl ester of the lauramide of the arginine monohydrochloride]
- calculated reduction R=N×0.1/Na ([1]; 100 μg/mL of LAE, 60 minutes): 3.1×10^2 cfu/mL
- calculated reduction R=N×0.1/Na ([1]; 200 μg/mL of LAE, 60 minutes): 1.3×10^3 cfu/mL
- calculated reduction R=N×0.1/Na ([1]; 300 μg/mL of LAE, 60 minutes): 1.4×10^3 cfu/mL
- calculated reduction R=N×0.1/Na ([1]; 400 μg/mL of LAE, 60 minutes): 1.7×10^3 cfu/mL
- calculated reduction R=N×0.1/Na ([1]; 500 μg/mL of LAE, 60 minutes): > 10^4 cfu/mL
- concentration at which fungicide active (reduction equal to or above 10^4) ([1]; 60 minutes contact, UNE-EN 1275): ≥ 500 ppm
- concentration from which a total inhibition of fungical spore germination has been observed ([1]; 60 minutes): ≥ 500 ppm
- concentration from which there is inhibition of fungical spore germination ([1]; 60 minutes): ≥ 100 ppm
- Test of LAE fungicide activity (Na), surviving spores count ([1]; LAE 12.5 μg/mL, 60 minutes contact): >300 cfu/mL
- Test of LAE fungicide activity (Na), surviving spores count ([1]; LAE 25 μg/mL, 60 minutes contact): >300 cfu/mL
- Test of LAE fungicide activity (Na), surviving spores count ([1]; LAE 50 μg/mL, 60 minutes contact): >300 cfu/mL
- Test of LAE fungicide activity (Na), surviving spores count ([1]; LAE 100 μg/mL, 60 minutes contact): 1.6 × 10^4 cfu/mL
- Test of LAE fungicide activity (Na), surviving spores count ([1]; LAE 200 μg/mL, 60 minutes contact): 3.9 × 10^3 cfu/mL
- Test of LAE fungicide activity (Na), surviving spores count ([1]; LAE 300 μg/mL, 60 minutes contact): 3.5 × 10^3 cfu/mL
- Test of LAE fungicide activity (Na), surviving spores count ([1]; LAE 400 μg/mL, 60 minutes contact): 3.0 × 10^3 cfu/mL
- Test of LAE fungicide activity (Na), surviving spores count ([1]; LAE 500 μg/mL, 60 minutes contact): No
- Test of LAE fungicide activity (Na), surviving spores count ([1]; LAE 1000 μg/mL, 60 minutes contact): No
- calculated reduction (R) R=N×0.1/Na ([2]; 58 μg/ml of LAE): < 10^3 cfu/mL
- calculated reduction (R) R=N×0.1/Na ([2]; 115 μg/ml of LAE): < 10^3 cfu/mL
- calculated reduction (R) R=N×0.1/Na ([2]; 173 μg/ml of LAE): > 10^3 cfu/mL
- calculated reduction (R) R=N×0.1/Na ([2]; 230 μg/ml of LAE): > 10^3 cfu/mL
- calculated reduction (R) R=N×0.1/Na ([2]; 460 μg/ml of LAE): > 10^3 cfu/mL
- concentration displaying sporicidal activity (reduction equal to or above 10^3) [2, 9]: ≥ 173 μg/ml
- Test of LAE sporicidal activity (Na), surviving spores count ([2]; LAE 58 μg/mL, 60 minutes contact): 1.0 × 10^5 cfu/mL
- Test of LAE sporicidal activity (Na), surviving spores count ([2]; LAE 115 μg/mL, 60 minutes contact): 5.2 × 10^4 cfu/mL
- Test of LAE sporicidal activity (Na), surviving spores count ([2]; LAE 173 μg/mL, 60 minutes contact): <10^2 cfu/mL
- Test of LAE sporicidal activity (Na), surviving spores count ([2]; LAE 230 μg/mL, 60 minutes contact): <10^2 cfu/mL
- Test of LAE sporicidal activity (Na), surviving spores count ([2]; LAE 460 μg/mL, 60 minutes contact): <10^2 cfu/mL
- calculated reduction R=N×0.1/Na ([3]; 32 μg/mL of LAE): < 10^3 cfu/mL
- calculated reduction R=N×0.1/Na ([3]; 51 μg/mL of LAE): < 10^3 cfu/mL
- calculated reduction R=N×0.1/Na ([3]; 102 μg/mL of LAE): > 10^3 cfu/mL
- calculated reduction R=N×0.1/Na ([3]; 205 μg/mL of LAE): > 10^3 cfu/mL
- concentration displaying sporicidal activity (reduction equal to or above 10^3) [3, 9]: ≥ 102 μg/mL
- Test of LAE sporicidal activity (Na), surviving spores count ([3]; LAE 32 μg/mL, 60 minutes contact): 2.7 × 10^3 cfu/mL
- Test of LAE sporicidal activity (Na), surviving spores count ([3]; LAE 51 μg/mL, 60 minutes contact): 1.6 × 10^3 cfu/mL
- Test of LAE sporicidal activity (Na), surviving spores count ([3]; LAE 102 μg/mL, 60 minutes contact): <10^2 cfu/mL
- Test of LAE sporicidal activity (Na), surviving spores count ([3]; LAE 205 μg/mL, 60 minutes contact): <10^2 cfu/mL
- M.I.C. [4]: 32 ppm
- M.I.C. [5]: 64 ppm
- M.I.C. [6]: 32 ppm
- M.I.C. [7]: 32 ppm
- M.I.C. [8]: 16 ppm
